Experimental data as given in ChEMBL document CHEMBL1201862, “PubChem BioAssay data set” (2004).
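Briefly, cells in 96-well plates were exposed to five compound concentrations for 48 h, and endpoints were estimated by linear interpolation. The concentration for 50% growth inhibition is given as GI50.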 Calls of active or inactive are those of the source. Cut-off read from the data, not from the text of the source: active = GI50 up to about 1.1 µM and inactive = higher.

Tests used:
Test in all cases: NCI tumour cell line growth inhibition, 48 h
[1] = test system: SK-MEL-2
[2] = test system: HOP-62
[3] = test system: OVCAR-3
[4] = test system: OVCAR-5
[5] = test system: SK-OV-3
[6] = test system: HOP-92
[7] = test system: UACC-62
[8] = test system: MOLT-4
[9] = test system: PC-3
[10] = test system: MDA-MB-231
[11] = test system: SK-MEL-5
[12] = test system: NCI-H23
[13] = test system: SF-539
[14] = test system: A498
[15] = test system: HCT-116
[16] = test system: RPMI-8226
[17] = test system: MCF7
[18] = test system: TK-10
[19] = test system: HT-29

SMILES: O=C(O)c1ccccc1C1CCCc2c1[nH]c1ccccc21 (stereo not given)
- GI50 [1]: 91.6 µM (inactive)
- GI50 [2]: > 100 µM (inactive)
- GI50 [3]: 83.4 µM (inactive)
- GI50 [4]: > 100 µM (inactive)
- GI50 [5]: > 100 µM (inactive)
- GI50 [6]: 24 µM (inactive)
- GI50 [7]: 53.2 µM (inactive)
- GI50 [8]: 27.2 µM (inactive)
- GI50 [9]: 46.9 µM (inactive)
- GI50 [10]: 37.3 µM (inactive)
- GI50 [11]: 36.5 µM (inactive)
- GI50 [12]: 74.1 µM (inactive)
- GI50 [13]: 88.7 µM (inactive)
- GI50 [14]: 30.2 µM (inactive)
- GI50 [15]: 33.8 µM (inactive)
- GI50 [16]: 28.8 µM (inactive)
- GI50 [17]: 30.1 µM (inactive)
- GI50 [18]: > 100 µM (inactive)
- GI50 [19]: 61.4 µM (inactive)

SMILES: C=C(CCC(=O)N(CCc1c[nH]c2ccccc12)C(=O)c1ccccc1CSCC)C(=O)OC
- GI50 [1]: 48.6 µM (inactive)
- GI50 [2]: > 69.2 µM (inactive)
- GI50 [3]: > 39.5 µM (inactive)
- GI50 [4]: > 100 µM (inactive)
- GI50 [5]: > 71.3 µM (inactive)
- GI50 [6]: 40.6 µM (inactive)
- GI50 [7]: 12.4 µM (inactive)
- GI50 [8]: 4.02 µM (inactive)
- GI50 [9]: 23.2 µM (inactive)
- GI50 [10]: 30.1 µM (inactive)
- GI50 [11]: 23.4 µM (inactive)
- GI50 [12]: 31.9 µM (inactive)
- GI50 [13]: > 88.5 µM (inactive)
- GI50 [14]: 49.2 µM (inactive)
- GI50 [15]: 7.19 µM (inactive)
- GI50 [16]: 7.59 µM (inactive)
- GI50 [17]: 19.9 µM (inactive)
- GI50 [18]: 66.5 µM (inactive)
- GI50 [19]: 19.5 µM (inactive)

SMILES: Cc1nc2c(-c3ccccc3)[nH]c(C)c2c(=O)o1
- GI50 [1]: 46.7 µM (inactive)
- GI50 [2]: 33.3 µM (inactive)
- GI50 [4]: > 100 µM (inactive)
- GI50 [5]: 49.9 µM (inactive)
- GI50 [6]: > 100 µM (inactive)
- GI50 [7]: 23.9 µM (inactive)
- GI50 [8]: 52.5 µM (inactive)
- GI50 [9]: > 100 µM (inactive)
- GI50 [10]: 31.2 µM (inactive)
- GI50 [11]: 13.1 µM (inactive)
- GI50 [12]: 57.7 µM (inactive)
- GI50 [13]: 56.5 µM (inactive)
- GI50 [14]: 22.1 µM (inactive)
- GI50 [15]: 45.6 µM (inactive)
- GI50 [16]: 32.7 µM (inactive)
- GI50 [17]: 1.39 µM (inactive)
- GI50 [18]: > 100 µM (inactive)
- GI50 [19]: 39.4 µM (inactive)

SMILES: C/C(=N\NC(=S)N1CCCCC1)c1cccc(C)n1
- GI50 [1]: 0.515 µM (active)
- GI50 [2]: < 0.01 µM (active)
- GI50 [3]: < 0.01 µM (active)
- GI50 [4]: 0.149 µM (active)
- GI50 [5]: < 0.0146 µM (active)
- GI50 [6]: 0.169 µM (active)
- GI50 [7]: 0.0318 µM (active)
- GI50 [8]: < 0.01 µM (active)
- GI50 [9]: < 0.01 µM (active)
- GI50 [10]: < 0.01 µM (active)
- GI50 [11]: < 0.0335 µM (active)
- GI50 [12]: < 0.01 µM (active)
- GI50 [13]: < 0.0404 µM (active)
- GI50 [14]: 0.0199 µM (active)
- GI50 [15]: < 0.01 µM (active)
- GI50 [16]: < 0.01 µM (active)
- GI50 [17]: < 0.01 µM (active)
- GI50 [19]: < 0.01 µM (active)

SMILES: CCCCCCCCCCCCCCCCCCNc1ccn(C2OC(COP(=O)(O)OCC3OC(n4cc(F)c(NCCCCCCCCCCCCCCCCCC)nc4=O)CC3O)C(O)C2O)c(=O)n1 (stereo not given)
- GI50 [1]: > 100 µM (inactive)
- GI50 [2]: > 100 µM (inactive)
- GI50 [3]: > 100 µM (inactive)
- GI50 [4]: > 100 µM (inactive)
- GI50 [5]: > 100 µM (inactive)
- GI50 [6]: 19.3 µM (inactive)
- GI50 [7]: > 100 µM (inactive)
- GI50 [8]: > 100 µM (inactive)
- GI50 [9]: 56.8 µM (inactive)
- GI50 [10]: 78.9 µM (inactive)
- GI50 [11]: > 100 µM (inactive)
- GI50 [12]: > 100 µM (inactive)
- GI50 [13]: > 100 µM (inactive)
- GI50 [14]: 25.8 µM (inactive)
- GI50 [15]: > 100 µM (inactive)
- GI50 [16]: 66.4 µM (inactive)
- GI50 [17]: > 100 µM (inactive)
- GI50 [18]: > 100 µM (inactive)
- GI50 [19]: > 100 µM (inactive)

SMILES: Cc1nnc2sc(-c3ccc(-c4ccccc4Cl)o3)nn12
- GI50 [1]: 26.1 µM (inactive)
- GI50 [2]: > 100 µM (inactive)
- GI50 [3]: 27 µM (inactive)
- GI50 [4]: > 100 µM (inactive)
- GI50 [5]: 57.9 µM (inactive)
- GI50 [6]: 40.2 µM (inactive)
- GI50 [7]: 35.2 µM (inactive)
- GI50 [8]: 19 µM (inactive)
- GI50 [9]: 37.2 µM (inactive)
- GI50 [10]: 53.2 µM (inactive)
- GI50 [11]: 20.9 µM (inactive)
- GI50 [12]: 24.2 µM (inactive)
- GI50 [13]: 19.7 µM (inactive)
- GI50 [14]: 37.2 µM (inactive)
- GI50 [15]: 19.8 µM (inactive)
- GI50 [16]: 20.4 µM (inactive)
- GI50 [17]: 29.1 µM (inactive)
- GI50 [18]: 45.1 µM (inactive)
- GI50 [19]: 34.4 µM (inactive)

SMILES: CC(=O)/C(=C\Nc1c(C)n(C)n(C)c1=O)C(=O)c1ccccc1
- GI50 [1]: > 50 µM (inactive)
- GI50 [2]: > 50 µM (inactive)
- GI50 [3]: > 50 µM (inactive)
- GI50 [4]: > 50 µM (inactive)
- GI50 [5]: > 50 µM (inactive)
- GI50 [6]: 26.5 µM (inactive)
- GI50 [7]: > 50 µM (inactive)
- GI50 [8]: > 50 µM (inactive)
- GI50 [9]: > 50 µM (inactive)
- GI50 [10]: > 50 µM (inactive)
- GI50 [11]: > 50 µM (inactive)
- GI50 [12]: > 50 µM (inactive)
- GI50 [13]: > 50 µM (inactive)
- GI50 [14]: > 50 µM (inactive)
- GI50 [15]: > 50 µM (inactive)
- GI50 [16]: > 50 µM (inactive)
- GI50 [17]: > 50 µM (inactive)
- GI50 [18]: > 50 µM (inactive)
- GI50 [19]: > 50 µM (inactive)

SMILES: COc1ccc2c(c1)[nH]c1c3ccc(OC)cc3oc(=O)c21
- GI50 [1]: > 100 µM (inactive)
- GI50 [2]: > 100 µM (inactive)
- GI50 [3]: > 100 µM (inactive)
- GI50 [4]: > 100 µM (inactive)
- GI50 [5]: > 100 µM (inactive)
- GI50 [6]: > 100 µM (inactive)
- GI50 [7]: > 100 µM (inactive)
- GI50 [8]: > 100 µM (inactive)
- GI50 [9]: > 100 µM (inactive)
- GI50 [10]: 92 µM (inactive)
- GI50 [11]: > 100 µM (inactive)
- GI50 [12]: > 100 µM (inactive)
- GI50 [13]: > 100 µM (inactive)
- GI50 [14]: > 100 µM (inactive)
- GI50 [15]: > 100 µM (inactive)
- GI50 [16]: 60.7 µM (inactive)
- GI50 [17]: 5.73 µM (inactive)
- GI50 [18]: > 100 µM (inactive)
- GI50 [19]: > 100 µM (inactive)

SMILES: O=S(=O)(c1ccccc1)n1c(C(O)c2ccncc2)cc2ccccc21 (stereo not given)
- GI50 [1]: 52.6 µM (inactive)
- GI50 [2]: > 100 µM (inactive)
- GI50 [3]: 46.8 µM (inactive)
- GI50 [4]: > 100 µM (inactive)
- GI50 [5]: 44.4 µM (inactive)
- GI50 [6]: 27 µM (inactive)
- GI50 [7]: 26.5 µM (inactive)
- GI50 [8]: 23.7 µM (inactive)
- GI50 [9]: 35.9 µM (inactive)
- GI50 [10]: 74.6 µM (inactive)
- GI50 [11]: 16.8 µM (inactive)
- GI50 [12]: 44.7 µM (inactive)
- GI50 [13]: > 100 µM (inactive)
- GI50 [14]: 38.7 µM (inactive)
- GI50 [15]: 43.1 µM (inactive)
- GI50 [16]: 27.1 µM (inactive)
- GI50 [17]: 20.9 µM (inactive)
- GI50 [18]: 28.4 µM (inactive)
- GI50 [19]: 44.6 µM (inactive)

SMILES: CN(C)C(=S)S [SODIUM DIMETHYLCARBAMODITHIOATE]
- GI50 [1]: 18.1 µM (inactive)
- GI50 [3]: 0.305 µM (active)
- GI50 [4]: > 100 µM (inactive)
- GI50 [5]: > 100 µM (inactive)
- GI50 [6]: > 100 µM (inactive)
- GI50 [7]: > 100 µM (inactive)
- GI50 [8]: 35.4 µM (inactive)
- GI50 [9]: 3.37 µM (inactive)
- GI50 [10]: 43.6 µM (inactive)
- GI50 [11]: 4.14 µM (inactive)
- GI50 [12]: > 50.8 µM (inactive)
- GI50 [13]: > 100 µM (inactive)
- GI50 [14]: > 100 µM (inactive)
- GI50 [15]: 25.5 µM (inactive)
- GI50 [16]: 17.5 µM (inactive)
- GI50 [17]: > 100 µM (inactive)
- GI50 [18]: > 100 µM (inactive)
- GI50 [19]: 11.5 µM (inactive)

SMILES: CC(NC(=O)/C(=C/c1ccccc1)NC(=O)c1ccccc1)C(=O)O (stereo not given)
- GI50 [1]: > 100 µM (inactive)
- GI50 [2]: > 100 µM (inactive)
- GI50 [3]: > 100 µM (inactive)
- GI50 [4]: > 100 µM (inactive)
- GI50 [5]: 87.3 µM (inactive)
- GI50 [6]: 33.1 µM (inactive)
- GI50 [7]: 57 µM (inactive)
- GI50 [8]: > 100 µM (inactive)
- GI50 [9]: > 100 µM (inactive)
- GI50 [10]: 36.5 µM (inactive)
- GI50 [11]: > 100 µM (inactive)
- GI50 [12]: 47.4 µM (inactive)
- GI50 [13]: 20.6 µM (inactive)
- GI50 [14]: > 100 µM (inactive)
- GI50 [15]: 91.2 µM (inactive)
- GI50 [16]: > 100 µM (inactive)
- GI50 [17]: 54.2 µM (inactive)
- GI50 [19]: > 100 µM (inactive)
